In patent publication US20110111014A1, “METHODS AND COMPOSITIONS FOR TREATMENT OF NEUROLOGICAL DISORDERS” (Parkinson's Institute, priority 2007, published 2011):
Structures can show the parent of a compound that is named as a salt. Values belong to the compound of their own block, whether it stands above or below them.

Key:
[1] = target: T1, α-synuclein (Homo sapiens, UniProt P37840); assay: Aggregation inhibition Thioflavin T assay (primary assay); format: biochemical; details: for lagtime for fibrillation: NINDS Collection 2 Library; for Thioflavin T signal / fibril formation by Thioflavin T fluorescence: compared with control samples (FIGS. 1-13)
T1 construct: made in house; host or cells: E. coli BL21(DE3), plasmid pRK172/α-synuclein WT

[2] = target: T1, α-synuclein; assay: Centrifugation to separate soluble and insoluble protein, SDS-PAGE; format: biochemical; details: for protein soluble after incubation, SDS PAGE of supernatant vs. total mixture: figure legends
[3] = target: T1, α-synuclein; assay: Electron microscopy of fibrils (secondary assay); format: biochemical; details: figure legends
[4] = target: T1, α-synuclein; assay: Disaggregation Thioflavin T assay; format: biochemical; details: polyphenol inhibitors
[5] = target: T1, α-synuclein; assay: Atomic force microscopy of fibrils; format: biochemical; details: 45 hours post treatment, compared to control
Experimental: Atomic force microscopy (AFM): AFM images were collected with a PicoScan LE system (Molecular Imaging, Phoenix, AZ) equipped with Acoustic AC mode (Tapping mode) for ex-situ experiment. Triangular cantilevers with 160 kHz resonance frequency and 2 N/m spring constant, a V-shaped cantilever NSC16/AIBS (MikroMasch), were used in tapping mode imaging. The imaging was carried out at a scan rate of 1 line/s with 512 data points per line, at a drive current of 10±4 Å. Aliquots of 10 ul of sample were placed on a freshly cleaved mica substrate. After incubation for at least 60 min, the substrate was rinsed with water several times to remove salt and loosely bound protein and dried with high-purity nitrogen. Kinetics of α-synuclein fibrillation can be visualized with the use of this technique, as exemplified in FIG. 46.

[6] = cited from earlier work
[7] = in vivo; cited from earlier work
[8] = target: T1, α-synuclein; assay: SEC HPLC, oligomer formation; format: biochemical; details: none with control

lagtime for fibrillation [1]: Significant increases in
Compound: NC(=O)c1ccc[n+]([C@@H]2O[C@H](COP(=O)([O-])OP(=O)(O)OC[C@H]3O[C@@H](n4cnc5c(N)ncnc54)[C@H](OP(=O)(O)O)[C@@H]3O)[C@@H](O)[C@H]2O)c1 [sodium beta-nicotinamide adenine dinucleotide phosphate]

Compound: c1ccc(N=Nc2ccccc2)cc1 [azobenzene]
lagtime for fibrillation [1]: Significant increases in

Thioflavin T signal / fibril formation by Thioflavin T fluorescence [1]: negligible fibril formation
protein soluble after incubation, SDS PAGE of supernatant vs. total mixture [2]: most protein still soluble
fibril formation by EM [3]: negligible fibril formation
Compound: O=C1c2ccc(O)c(O)c2C(=O)c2c(O)ccc(O)c21 [quinalizarin]

disaggregation of α-synuclein aggregates [4]: best disaggregators
Compound: O=c1c(-c2ccc(O)c(O)c2)coc2cc(O)ccc12 [7,3′,4′-trihydroxyisoflavone]

Compound: O=C(O[C@@H]1Cc2c(O)cc(O)cc2O[C@@H]1c1cc(O)c(O)c(O)c1)c1cc(O)c(O)c(O)c1 [epigallocatechin gallate]
disaggregation of α-synuclein aggregates [4]: best disaggregators

Thioflavin T signal / fibril formation by Thioflavin T fluorescence [1]: negligible fibril formation
protein soluble after incubation, SDS PAGE of supernatant vs. total mixture [2]: most protein still soluble
fibril formation by EM [3]: negligible fibril formation
Compound: pyrogallin

lagtime for fibrillation [1]: Significant increases in
Compound: CCCCOc1ccc(OCCCN2CCOCC2)cc1 [pramoxine hydrochloride]

lagtime for fibrillation [1]: Significant increases in
Compound: O=C1c2ccccc2C(=O)c2c(O)c(O)cc(O)c21 [purpurin]

protein soluble after incubation, SDS PAGE of supernatant vs. total mixture [2]: most protein still soluble
fibrils with atomic force microscopy [5]: very few fibrils
Compound: O=c1cc(-c2ccccc2)oc2cc(O)c(O)c(O)c12 [baicalein]

disaggregation of α-synuclein aggregates [4]: best disaggregators
Compound: O=c1cc(-c2ccc(O)c(O)c2)oc2cc(O)cc(O)c12 [luteolin]

lagtime for fibrillation [1]: Significant increases in
Compound: O=C(Cc1cccs1)N[C@@H]1C(=O)N2C(C(=O)[O-])=C(C[n+]3ccccc3)CS[C@H]12 [cephaloridine]

Compound: N[C@@H](Cc1ccc(O)c(O)c1)C(=O)O [l-dopa, (−)-L-a-amino-b-(3,4-dihydroxybenzene)propanoic acid]
solubility in water [6]: slightly soluble
crossing of the blood-brain barrier [7]: does cross

Compound: N.N.[Cl][Pt][Cl] [cisplatin]
Thioflavin T signal / fibril formation by Thioflavin T fluorescence [1]: negligible fibril formation
fibril formation by EM [3]: negligible fibril formation

Thioflavin T signal / fibril formation by Thioflavin T fluorescence [1]: negligible fibril formation
protein soluble after incubation, SDS PAGE of supernatant vs. total mixture [2]: most protein still soluble
fibril formation by EM [3]: negligible fibril formation
Compound: CC(CCc1ccc(O)cc1)NCCc1ccc(O)c(O)c1 (stereo not shown) [dobutamine]

disaggregation of α-synuclein aggregates [4]: best disaggregators
Compound: O=c1cc(-c2cc(O)c(O)c(O)c2)oc2cc(O)cc(O)c12 [5,7,3′,4′,5′-pentahydroxyflavone]

lagtime for fibrillation [1]: Significant increases in
Compound: Cn1nnnc1SCC1=C(C(=O)O)N2C(=O)[C@@H](NC(=O)[C@H](O)c3ccccc3)[C@H]2SC1 [cefamandole sodium]

disaggregation of α-synuclein aggregates [4]: best disaggregators
Compound: O=c1cc(-c2cccc(O)c2O)oc2ccccc12 [2′,3′-dihydroxyflavone]

lagtime for fibrillation [1]: Significant increases in
Compound: CCCCOc1ccc(C(=O)CCN2CCCCC2)cc1 [dyclonine hydrochloride]

disaggregation of α-synuclein aggregates [4]: best disaggregators
Compound: Oc1cccc(O)c1O [pyrogallol]

lagtime for fibrillation [1]: Significant increases in
Compound: Cc1c(OCC(F)(F)F)ccnc1C[S+]([O-])c1nc2ccccc2[nH]1 (stereo not shown) [lansoprazole]

Thioflavin T signal / fibril formation by Thioflavin T fluorescence [1]: very low
protein soluble after incubation, SDS PAGE of supernatant vs. total mixture [2]: most protein still soluble
fibril formation by EM [3]: negligible fibril formation
oligomer formation by SEC HPLC [8]: oligomer formation
Compound: CN1CCc2cccc3c2[C@H]1Cc1ccc(O)c(O)c1-3 [apomorphine, 6αβ-Aporphine-10,11-diol hydrochloride hemihydrate]

disaggregation of α-synuclein aggregates [4]: best disaggregators
Compound: O=c1cc(-c2cc(O)c(O)c(O)c2)oc2cc(O)ccc12 [7,3′,4′,5′-tetrahydroxyflavone]

disaggregation of α-synuclein aggregates [4]: best disaggregators
Compound: O=c1cc(-c2ccc(O)c(O)c2)oc2ccccc12 [3′,4′-dihydroxyflavone]

Thioflavin T signal / fibril formation by Thioflavin T fluorescence [1]: very low
protein in the supernatant after centrifugation ([2]; FIG. 1B, control samples <15%): > 90%
fibril formation by EM [3]: Few fibrils
Compound: CC(C)NCC(O)c1ccc(O)c(O)c1 (stereo not shown) [isoproterenol]

Thioflavin T signal / fibril formation by Thioflavin T fluorescence [1]: negligible fibril formation
protein soluble after incubation, SDS PAGE of supernatant vs. total mixture [2]: most protein still soluble
fibril formation by EM [3]: negligible fibril formation
Compound: chlorophyllide Cu complex Na salt

Compound: O=c1c(O)c(-c2ccc(O)c(O)c2)oc2c(O)c(O)cc(O)c12 [3,5,7,8,3′,4′-hexahydroxyflavone]
disaggregation of α-synuclein aggregates [4]: best disaggregators

Compound: NCCc1ccc(O)c(O)c1 [dopamine]
crossing of the blood-brain barrier [7]: does not cross

disaggregation of α-synuclein aggregates [4]: best disaggregators
Compound: O=c1c(O)c(-c2ccc(O)c(O)c2)oc2ccccc12 [3′,4′-dihydroxyflavonol]

disaggregation of α-synuclein aggregates [4]: best disaggregators
Compound: O=c1cc(-c2cccc(O)c2O)oc2ccc(O)cc12 [6,2′,3′-trihydroxyflavone]

disaggregation of α-synuclein aggregates [4]: best disaggregators
Compound: O=c1c(O)c(-c2ccc(O)c(O)c2)oc2cc(O)ccc12 [fisetin]

Thioflavin T signal / fibril formation by Thioflavin T fluorescence [1]: negligible fibril formation
protein soluble after incubation, SDS PAGE of supernatant vs. total mixture [2]: most protein still soluble
fibril formation by EM [3]: negligible fibril formation
Compound: C[C@@](Cc1ccc(O)c(O)c1)(NN)C(=O)O [carbidopa]

Thioflavin T signal / fibril formation by Thioflavin T fluorescence [1]: negligible fibril formation
protein soluble after incubation, SDS PAGE of supernatant vs. total mixture [2]: most protein still soluble
fibril formation by EM [3]: negligible fibril formation
Compound: CCCCCCCC/C=C/CCCCCCCCOP(=O)([O-])OCC[N+](C)(C)C [elaidyphosphocholine (antineoplastic), elaidylphosphocholine]
